According to ChEMBL document CHEMBL1144628, “6-Hydrazinopurine 2'-methyl ribonucleosides and their 5'-monophosphate prodrugs as potent hepatitis C virus inhibitors” (Bioorg Med Chem Lett, 2007):

How the values were obtained:
Hepatitis C virus = test: Antiviral activity against HCV by replicon assay; type: functional, organism-based, Hepacivirus hominis
[1] = Stability in human simulated intestinal fluid at 1 mg/mL after 60 mins; type: ADME; settings: read-out: Stability
[2] = Stability in human simulated gastric fluid; type: ADME, Stomach; settings: simulated gi fluid
Plasma = test: Stability in human plasma; type: ADME, cell-free
[3] = Stability in human simulated intestinal fluid at 1 mg/mL after 30 mins; type: ADME; settings: read-out: Stability
[4] = Stability in human simulated intestinal fluid at 1 mg/mL after 2 hrs; type: ADME; settings: simulated gi fluid

EC50 (Hepatitis C virus) [µM]	remaining at 1 h, 1 mg/mL [1] [%]	Stability [2]	Stability (Plasma)	remaining at 0.5 h, 1 mg/mL [3] [%]	Stability [4]	SMILES
1.2	–	–	–	–	–	COC(=O)C(C)NP(=O)(OC[C@H]1O[C@@H](n2cnc3c(N(C)NS(C)(=O)=O)nc(N)nc32)[C@](C)(O)[C@@H]1O)Oc1ccccc1 (stereo not given in full)
0.8	–	–	–	–	–	COC(=O)C(C)NP(=O)(OC[C@H]1O[C@@H](n2cnc3c(N(C)NS(C)(=O)=O)nc(N)nc32)[C@](C)(O)[C@@H]1O)Oc1ccc(Cl)cc1 (stereo not given in full)
2.2	0	Stable	Stable	0	–	CC(NP(=O)(OC[C@H]1O[C@@H](n2cnc3c(N(C)NS(C)(=O)=O)nc(N)nc32)[C@](C)(O)[C@@H]1O)Oc1ccccc1)C(=O)OCc1ccccc1 (stereo not given in full)
0.06	–	–	–	–	–	CN(NS(C)(=O)=O)c1ncnc2c1ncn2[C@@H]1O[C@H](COP(=O)(OCCSC(=O)C(C)(C)C)OCCSC(=O)C(C)(C)C)[C@@H](O)[C@@]1(C)O
92	–	–	–	–	–	CN(NS(C)(=O)=O)c1nc(N)nc2c1ncn2[C@@H]1O[C@H](CO)[C@@H](O)[C@@]1(C)O
300	–	–	–	–	–	CN(NS(C)(=O)=O)c1ncnc2c1ncn2[C@@H]1O[C@H](CO)[C@@H](O)[C@@]1(C)O
2.6	–	–	–	–	–	COC(=O)C(C)NP(=O)(OC[C@H]1O[C@@H](n2cnc3c(N(C)NS(C)(=O)=O)ncnc32)[C@](C)(O)[C@@H]1O)Oc1ccc(Cl)cc1 (stereo not given in full)
22	0	Stable	Stable	0	–	COC(=O)CNP(=O)(OC[C@H]1O[C@@H](n2cnc3c(N(C)NS(C)(=O)=O)nc(N)nc32)[C@](C)(O)[C@@H]1O)Oc1ccccc1 (stereo not given in full)
8.9	0	Stable	Stable	0	–	COC(=O)CNP(=O)(OC[C@H]1O[C@@H](n2cnc3c(N(C)NS(C)(=O)=O)nc(N)nc32)[C@](C)(O)[C@@H]1O)Oc1ccc(Cl)cc1 (stereo not given in full)
2.9	0	Stable	Stable	0	–	CC(NP(=O)(OC[C@H]1O[C@@H](n2cnc3c(N(C)NS(C)(=O)=O)ncnc32)[C@](C)(O)[C@@H]1O)Oc1ccccc1)C(=O)OCc1ccccc1 (stereo not given in full)
0.11	0	Stable	Stable	0	–	CC(NP(=O)(OC[C@H]1O[C@@H](n2cnc3c(N(C)NS(C)(=O)=O)nc(N)nc32)[C@](C)(O)[C@@H]1O)Oc1ccc(Cl)cc1)C(=O)OCc1ccccc1 (stereo not given in full)
2.5	48	Stable	Stable	67	–	CC(C)OC(=O)C(C)NP(=O)(OC[C@H]1O[C@@H](n2cnc3c(N(C)NS(C)(=O)=O)ncnc32)[C@](C)(O)[C@@H]1O)Oc1ccc(Cl)cc1 (stereo not given in full)
220	0	Stable	Stable	0	–	COC(=O)CNP(=O)(OC[C@H]1O[C@@H](n2cnc3c(N(C)NS(C)(=O)=O)ncnc32)[C@](C)(O)[C@@H]1O)Oc1ccccc1 (stereo not given in full)
0.68	0	Stable	Stable	0	–	CC(NP(=O)(OC[C@H]1O[C@@H](n2cnc3c(N(C)NS(C)(=O)=O)ncnc32)[C@](C)(O)[C@@H]1O)Oc1ccc(Cl)cc1)C(=O)OCc1ccccc1 (stereo not given in full)
0.27	37	Stable	Stable	61	–	CC(C)OC(=O)C(C)NP(=O)(OC[C@H]1O[C@@H](n2cnc3c(N(C)NS(C)(=O)=O)nc(N)nc32)[C@](C)(O)[C@@H]1O)Oc1ccc(Cl)cc1 (stereo not given in full)
1.4	100	Stable	Stable	100	Stable	COC(=O)C(C)(C)NP(=O)(OC[C@H]1O[C@@H](n2cnc3c(N(C)NS(C)(=O)=O)ncnc32)[C@](C)(O)[C@@H]1O)Oc1ccc(Cl)cc1 (stereo not given in full)
0.26	100	Stable	Stable	100	Stable	COC(=O)C(C)(C)NP(=O)(OC[C@H]1O[C@@H](n2cnc3c(N(C)NS(C)(=O)=O)nc(N)nc32)[C@](C)(O)[C@@H]1O)Oc1ccc(Cl)cc1 (stereo not given in full)
26	–	–	–	–	–	COC(=O)C(C)NP(=O)(OC[C@H]1O[C@@H](n2cnc3c(N(C)NS(C)(=O)=O)ncnc32)[C@](C)(O)[C@@H]1O)Oc1ccccc1 (stereo not given in full)
0.024	–	–	–	–	–	CN(NS(C)(=O)=O)c1nc(N)nc2c1ncn2[C@@H]1O[C@H](COP(=O)(OCCSC(=O)C(C)(C)C)OCCSC(=O)C(C)(C)C)[C@@H](O)[C@@]1(C)O
39	0	Stable	Stable	0	–	COC(=O)CNP(=O)(OC[C@H]1O[C@@H](n2cnc3c(N(C)NS(C)(=O)=O)ncnc32)[C@](C)(O)[C@@H]1O)Oc1ccc(Cl)cc1 (stereo not given in full)
